Reference: patent US20160235778A1, “COMPOSITIONS CONTAINING PUFA, URIDINE AND CHOLINE AND METHODS OF USE THEREOF” (MASSACHUSETTS INSTITUTE OF TECHNOLOGY, priority 2014, published 2016)

Tests used:
[1] = tested on: hippocampal dendritic spines; experiment: Hippocampal dendritic spine numbers in pups of treated pregnant and nursing mothers; type: in vivo; conditions: rat pups, mothers treated 10 days before parturition and 20 days while nursing
Source text: In another study, pregnant rats were allowed to consume ad libitum, for 10 days before parturition and 20 days while nursing, either a choline-containing control diet or this diet supplemented with uridine as UMP; half of each group also received DHA or its diluent daily, by gavage. Pups were then sacrificed and brain slices were examined to determine numbers of hippocampal dendritic spines.

[2] = tested on: brain CDP-choline; experiment: Brain CDP-choline and CDP-ethanolamine levels (HPLC); type: in vivo; conditions: gerbil
Procedure: FIG. 5A-B. Effects of DHA on brain CDP-choline levels (FIG. 5A) and CDP-ethanolamine levels (FIG. 5B). Groups of 8 gerbils received either a control or a UMP-containing diet, and, by gavage, DHA (in a vehicle of 5% gum Arabic solution) or 5% gum Arabic solution alone for 28 days. On the 29th day brains were harvested and assayed for CDP-choline. Data are presented as means±SEM. Statistical analysis was performed using one- or two-way ANOVA followed by Tukey test. a: P<0.05 when compared with the values for control diet plus vehicle group; b: P<0.05 when compared with values for UMP diet plus vehicle group.
Aliquots (2 ml) of the upper (aqueous) phase were dried under a vacuum, reconstituted, and injected into an HPLC. The dried samples were reconstituted in 100-200 μl water and were analyzed by HPLC on an anion exchange column (Alltech Hypersil APS-2, […], 250×4.6 mm). CDP-choline was eluted with a linear gradient of buffers A (H3PO4, 1.75 mM, pH 2.9) and B (NaH2PO2, 500 mM, pH 4.5) from 0 to 100% B over period of 30 min. With this system, CDP-choline was resolved from closely co-eluting substances such as UMP in an isocratic system over a period of 40 min. The retention time for CDP-choline was 9.5 min. The column was washed with buffer B at the end of each experiment and every several days to remove retained nucleotides. Individual nucleotide peaks were detected by UV absorption at 280 nm and were identified by comparison with the positions of authentic standards, as well as by the addition of nucleotide standards to samples.

[3] = tested on: PC-12 cells; experiment: 14C-choline incorporation into phospholipids in PC-12 cells; type: cell-based
Procedure: PC-12 cells were maintained in Dulbecco's modified Eagle's medium (DMEM)+10% fetal bovine serum (FBS). For experiments, cells were grown in quintuplicate collagen-coated 35 millimeter (mm) dishes. Cells were incubated for 18 hours (hr) in serum-free DMEM containing 28 μM choline+/−5 micromolar (μM) of DHA, oleic acid, or palmitic acid. Cells were then labeled for 2.5 hr with 0.5 microcurie (μCi)/ml ^14C-choline in serum-free DMEM containing 10-micromolar (μM) choline.
Cells were homogenized in 100 volumes of ice-cold deionized water using a tissue degrader (Polytron PT 10-35, Kinematica AG, Switzerland); 1 ml of aliquots were then mixed with 3 ml of chloroform+methanol mixture (2:1 v/v) and vortexed vigorously for 30 seconds. After cooling for 1 h on ice, the mixture was mixed sequentially with 3 ml of chloroform+methanol mixture (2:1 v/v) and 1 ml of ice-cold deionized water. […] Total phosphorus was determined by comparison with standard curves by using KH2PO4 run with each assay. […] Absorbance was measured spectrophotometrically at 820 nm. Phospholipid mass was determined by multiplying the phosphorus content by 25.
To further characterize the stimulation of phospholipid synthesis by omega-3 fatty acids, PC-12 cells were pre-treated with different doses of DHA and exposed to labeled choline as described in Example 1, then incorporation of ^14C-label into phospholipids was measured. […]

CCC=CCC=CCC=CCC=CCC=CCC=CCCC(=O)O [DHA, 4,7,10,13,16,19-docosahexaenoic acid]
Increase over control (%) [1]: 32%
Number of spines [1]: 70
reduction of brain CDP-choline levels in UMP-treated gerbils ([2]; 28 days, compared with UMP-containing diet and DHA's vehicle): 21%
reduction of brain CDP-choline levels ([2]; 28 days, compared with control diet and DHA's vehicle): 26%
brain CDP-choline levels, in words ([2]; FIG. 5A): decreased
brain CDP-ethanolamine levels, in words ([2]; FIG. 5B): decreased
Phosphatidylcholine (PC) synthesis (incorporation of 14C label into PC) ([3]; 18 h pre-incubation with 5 μM fatty acid, FIG. 1): significantly increased
synthesis of phospholipids (incorporation of 14C-label) ([3]; different doses of DHA, dose-dependent, FIG. 2): increased synthesis of phospholipids
